Where two headings read alike, the source gives them in different places.
Tests used:
T cells (Molt 4) = test: Inhibition of the growth of T cells (Molt 4); format: cell-based; settings: Homo sapiens, read-out: I50, growth of Molt 4 cells
Procedure: (§1) The compounds of the invention were tested for inhibition of the growth of T cells (Molt 4) and B cells (IM9) by the method of Averett, D., Journal of Virological Methods, 23, (1989), 263-276.

[1] = system: Human cytomegalovirus (HCMV); test: Anti-HCMV plaque reduction assay in MRC5 cells; format: cell-based; settings: Human betaherpesvirus 5, read-out: IC50, anti-HCMV activity (50% inhibitory concentration)
Procedure: Human cytomegalovirus (HCMV) is assayed in monolayers of MRC5 cells (human embryonic lung) in multiwell trays. Activity of compounds is determined in the plaque reduction assay, in which a cell monolayer is infected with a suspension of HCMV. A range of concentrations of the compound to be tested (of known molarity) is then incorporated into the carboxymethyl cellulose overlay. Plaque numbers of each concentration are expressed as percentage of the control and a dose-response curve is drawn. From this curve the 50% inhibitory concentration (IC50) is estimated.

B cells (IM9) = test: Inhibition of the growth of B cells (IM9); format: cell-based; settings: Homo sapiens, IM-9; read-out: I50, growth of IM9 cells
Procedure: as §1

[2] = system: HBV (HepG2 2.2.15, P5A cell line); test: Anti-HBV assay: HBV DNA in supernatants of HBV-producing cells, immunoaffinity capture, PCR and hybrid-capture detection; format: cell-based, Hepatitis B virus; settings: HepG2 2.2.15, P5A cells, compound on days 1, 3, 5, 7
Procedure: Anti-HBV activity of compounds of formula (I) and (I-1) was determined with a high-capacity assay for assessing efficacy. Supernatants from growing HBV-producing cells (HepG2 2.2.15, P5A cell line) in 96-well plates are applied to microtiter plate wells which have been coated with a specific monoclonal antibody to HBV surface antigen (HBsAg). Virus particles present in the supernatants bind to the antibody and remain immobilized while other debris is removed by washing. These virus particles are then denatured to release HBV DNA strands which are subsequently amplified by the polymerase chain reaction and detected with a colorimetric hybrid-capture assay. Quantitation is achieved through fitting of a standard curve to dilutions of a cell supernatant with known HBV DNA content. By comparing HBV DNA levels of untreated control cell supernatants with supernatants containing a compound of formula (I) or (I-1), a measure of anti-HBV effectiveness is obtained.
HBV producer cells, 2500 cells/well, were seeded in 96-well culture dishes in RPMI/10% fetal bovine serum/2 mM glutamine (RPMI/10/2:). […] Twenty-five uL HBV standard media dilutions in RPMI/10/2 were added to 2 rows of wells to serve as an internal standard curve for quantitation, and the plates were sealed and incubated at 4° C. overnight. […]
Polymerase chain reaction (Saiki, R. K. et al., Science, 239 (4839) 487-91 (1988)) was carried out on 5uL samples, using a Perkin Elmer PCR kit. […] Primers were chosen from conserved regions in the HBV genome, as determined by alignment of several sequences. […]
PCR products were detected with horse radish peroxidase-labeled oligonucleotide probes (Synthecell Corp., Rockville, Md. 20850), which hybridize to biotinylated strands of denatured PCR products directly in streptavidin-coated microtiter plate wells, using essentially the method of Holodiniy, M. et al., Bio Techniques, 12 (1) 37-39 (1992). […] Quantities of HBV DNA present in the original samples were calculated by comparison with standards. […]

[3] = Hepatitis B virus, HepG2 2.2.15, read-out: IC50 (median inhibitory concentration, 50 percent decrease in HBV DNA), approximate IC50

Structure (SMILES) | IC50 (T cells (Molt 4)) [µM] | IC50 [1] [µM] | IC50 (B cells (IM9)) [µM] | IC50 [2, 3] [µM] | IC50 ([2]; read-out: IC50 (median inhibitory concentration, 50 percent decrease in HBV DNA), approximate IC50) [µM]
OC[C@@H]1C[C@H](n2c(Br)nc3cc(Cl)c(Cl)cc32)[C@@H](O)[C@H]1O (relative stereo) [Ex. 4, (±)-(1R*,2S*,3S*,5S*)-5-(2-Bromo-5,6-dichloro-1H-benzimidazol-1-yl)-3-(hydroxymethyl)-1,2-cyclopentanediol] | 39 | 1.9 | 48 |  | 
OC[C@@H]1C[C@@H](O)[C@H](n2c(Br)nc3cc(Cl)c(Cl)cc32)C1 (relative stereo) [Ex. 13, (±)-(1R*,2R*,4S*)-2-(2-Bromo-5,6-dichloro-1H-benzimidazol-1-yl)-4-(hydroxymethyl)cyclo-pentanol] | 32 | 1 | 88 | 5 | 
OC[C@@H]1C[C@H](n2c(Br)nc3cc(Cl)c(Cl)cc32)[C@@H](O)[C@H]1O [Ex. 69, (1R,2S,3S,5S)-5-(2-Bromo-5,6-dichloro-1H-benzimidazol-1-yl)-3-(hydroxymethyl)-1,2-cyclopentanediol] | 29 |  | 35 | 0.72 | 1.3
